Measured values published in PubChem BioAssay AID248 (DTP/NCI, 2004).
“And” between values parts separate entries of the source, which are not always exact repeats. Equal values may be shown once. Toxic doses and inconclusive results are not listed. No stated cut-off is given here; in the data, active means T/C of 150% or more; inactive means T/C below 125%.

Test system: L1210 leukemia ip in BDF1 mice, survival T/C
Assay: NCI In Vivo Anticancer Drug Screen. Data for tumor model L1210 Leukemia (intraperitoneal) in B6D2F1 (BDF1) mice
Conditions: endpoint: mean survival time, higher = longer survival
In short: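 Tumor cells were implanted, animals were treated, and survival was followed. The result divides the treated measurement by the vehicle-control measurement.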

[1] = dose: 100.0 mg/kg/injection, schedule: Q04DX003 (ip), vehicle: Klucel (hydroxypropylcellulose) (HPC)
[2] = dose: 200.0 mg/kg/injection, schedule: Q04DX003 (ip), vehicle: Klucel (hydroxypropylcellulose) (HPC)
[3] = dose: 100.0 mg/kg/injection, schedule: Q04DX002 (ip), vehicle: Klucel (hydroxypropylcellulose) (HPC)
[4] = dose: 200.0 mg/kg/injection, schedule: Q04DX002 (ip), vehicle: Klucel (hydroxypropylcellulose) (HPC)
[5] = dose: 400.0 mg/kg/injection, schedule: Q04DX002 (ip), vehicle: Klucel (hydroxypropylcellulose) (HPC)
[6] = dose: 100.0 mg/kg/injection, schedule: Q01DX009 (ip), vehicle: Klucel (hydroxypropylcellulose) (HPC)
[7] = dose: 200.0 mg/kg/injection, schedule: Q01DX009 (ip), vehicle: Klucel (hydroxypropylcellulose) (HPC)
[8] = dose: 400.0 mg/kg/injection, schedule: Q01DX009 (ip), vehicle: Klucel (hydroxypropylcellulose) (HPC)
[9] = dose: 50.0 mg/kg/injection, schedule: Q01DX009 (ip), vehicle: saline
[10] = dose: 100.0 mg/kg/injection, schedule: Q04DX003 (ip), vehicle: saline
[11] = dose: 75.0 mg/kg/injection, schedule: Q01DX001 (ip), vehicle: saline
[12] = dose: 100.0 mg/kg/injection, schedule: Q01DX009 (ip), vehicle: saline with Tween-80
[13] = dose: 100.0 mg/kg/injection, schedule: Q04DX003 (ip), vehicle: saline with Tween-80
[14] = dose: 200.0 mg/kg/injection, schedule: Q01DX009 (ip), vehicle: saline with Tween-80
[15] = dose: 200.0 mg/kg/injection, schedule: Q04DX003 (ip), vehicle: saline with Tween-80
[16] = dose: 400.0 mg/kg/injection, schedule: Q01DX009 (ip), vehicle: saline with Tween-80
[17] = dose: 400.0 mg/kg/injection, schedule: Q04DX003 (ip), vehicle: saline with Tween-80
[18] = dose: 100.0 mg/kg/injection, schedule: Q01DX009 (ip), vehicle: saline
[19] = dose: 200.0 mg/kg/injection, schedule: Q01DX009 (ip), vehicle: saline

Measured: T/C

O=C(Cl)/C=C/c1c(Cl)cccc1Cl
inactive: dose: 75.0 mg/kg/injection, schedule: Q01DX009 (ip), vehicle: Klucel (hydroxypropylcellulose) (HPC) 102 % of control | [1] 103 % of control | dose: 150.0 mg/kg/injection, schedule: Q01DX009 (ip), vehicle: Klucel (hydroxypropylcellulose) (HPC) 100 % of control | [2] 92 % of control | dose: 300.0 mg/kg/injection, schedule: Q01DX009 (ip), vehicle: Klucel (hydroxypropylcellulose) (HPC) 93 % of control

O=C(COc1ccc(Br)cc1)Nc1ccc(Cl)cc1
inactive: [3] 95 % of control | [4] 92 % of control | [5] 89 % of control

CC(CCN1CCOCC1)(CNC1=NCCN1)c1cccc2ccccc12 (stereo not given)
inactive: dose: 5.0 mg/kg/injection, schedule: Q01DX009 (ip), vehicle: saline with Tween-80 100 % of control | dose: 10.0 mg/kg/injection, schedule: Q01DX009 (ip), vehicle: saline with Tween-80 96 % of control | dose: 20.0 mg/kg/injection, schedule: Q01DX009 (ip), vehicle: saline with Tween-80 103 % of control

COc1ccc(NC(=O)Nc2ccc(C)c(C)c2)cc1
inactive: [6] 92 % of control | [1] 97 % of control | [7] 91 % of control | [2] 103 % of control | [8] 91 % of control | dose: 400.0 mg/kg/injection, schedule: Q04DX003 (ip), vehicle: Klucel (hydroxypropylcellulose) (HPC) 95 % of control

Cc1cccc(Nc2c(N)nc(N)nc2N)c1
inactive: dose: 25.0 mg/kg/injection, schedule: Q01DX009 (ip), vehicle: saline 105 % of control | [9] 120 % of control | [10] 104 % of control

CC(=O)OCCC(CCCl)OC(C)=O (stereo not given)
inactive: dose: 100.0 mg/kg/injection, schedule: Q04DX002 (ip), vehicle: saline with Tween-80 111 % of control | dose: 200.0 mg/kg/injection, schedule: Q04DX002 (ip), vehicle: saline with Tween-80 104 % of control | dose: 400.0 mg/kg/injection, schedule: Q04DX002 (ip), vehicle: saline with Tween-80 93 % of control

NC(CSS(=O)(=O)O)=NCc1ccccn1
inactive: [3] 95 % of control | [4] 101 % of control | [5] 98 % of control

CC1=C2C(=CC(C)(C)[C@@H]2O)C(=O)[C@](C)(O)C12CC2
inactive: dose: 75.0 micrograms/kg/injection, schedule: Q01DX Z (ip), vehicle: saline 98 % of control | dose: 150.0 micrograms/kg/injection, schedule: Q01DX Z (ip), vehicle: saline 104 % of control | dose: 300.0 micrograms/kg/injection, schedule: Q01DX Z (ip), vehicle: saline 106 % of control | dose: 600.0 micrograms/kg/injection, schedule: Q01DX Z (ip), vehicle: saline 106 % of control

C/C=C\c1ccc(OC(=O)NC)c(OC)c1
inactive: dose: 100.0 mg/kg/injection, schedule: Q01DX001 (ip), vehicle: carboxymethylcellulose (CMC) 99 % of control | dose: 100.0 mg/kg/injection, schedule: Q01DX009 (ip), vehicle: carboxymethylcellulose (CMC) 97 % of control and 104 % of control | [3] 100 % of control | dose: 100.0 mg/kg/injection, schedule: Q04DX002 (ip), vehicle: carboxymethylcellulose (CMC) 98 % of control and 104 % of control | dose: 100.0 mg/kg/injection, schedule: Q04DX003 (ip), vehicle: carboxymethylcellulose (CMC) 96 % of control | dose: 200.0 mg/kg/injection, schedule: Q01DX001 (ip), vehicle: carboxymethylcellulose (CMC) 100 % of control | dose: 200.0 mg/kg/injection, schedule: Q01DX009 (ip), vehicle: carboxymethylcellulose (CMC) 103 % of control and 104 % of control | [4] 103 % of control | dose: 200.0 mg/kg/injection, schedule: Q04DX002 (ip), vehicle: carboxymethylcellulose (CMC) 98 % of control and 108 % of control | dose: 200.0 mg/kg/injection, schedule: Q04DX003 (ip), vehicle: carboxymethylcellulose (CMC) 93 % of control | dose: 400.0 mg/kg/injection, schedule: Q01DX001 (ip), vehicle: carboxymethylcellulose (CMC) 99 % of control | dose: 400.0 mg/kg/injection, schedule: Q01DX009 (ip), vehicle: carboxymethylcellulose (CMC) 100 % of control and 101 % of control | [5] 103 % of control | dose: 400.0 mg/kg/injection, schedule: Q04DX002 (ip), vehicle: carboxymethylcellulose (CMC) 93 % of control and 98 % of control | dose: 400.0 mg/kg/injection, schedule: Q04DX003 (ip), vehicle: carboxymethylcellulose (CMC) 93 % of control

C[N+](C)(C)c1ccccn1
inactive: [11] 102 % of control

CCC(C)(O)C#N (stereo not given)
inactive: dose: 2.2 mg/kg/injection, schedule: Q01DX Z (ip), vehicle: saline 104 % of control | dose: 3.3 mg/kg/injection, schedule: Q01DX Z (ip), vehicle: saline 94 % of control | dose: 5.0 mg/kg/injection, schedule: Q01DX Z (ip), vehicle: saline 98 % of control

O=C1Cc2ccccc21
inactive: [12] 97 % of control | [13] 95 % of control | [14] 97 % of control | [15] 94 % of control | [16] 96 % of control | [17] 98 % of control

CN(C)C/C=C/COC(=O)C(C)(C)C
inactive: [11] 93 % of control | dose: 150.0 mg/kg/injection, schedule: Q01DX001 (ip), vehicle: saline 97 % of control | dose: 300.0 mg/kg/injection, schedule: Q01DX001 (ip), vehicle: saline 87 % of control

N#Cc1ccncc1
inactive: [6] 91 % of control | [7] 93 % of control | [8] 96 % of control

CC(=O)Nc1ccc(S(=O)(=O)Nc2cc(C)ns2)cc1
inactive: [10] 92 % of control | dose: 200.0 mg/kg/injection, schedule: Q04DX003 (ip), vehicle: saline 96 % of control | dose: 400.0 mg/kg/injection, schedule: Q04DX003 (ip), vehicle: saline 100 % of control

CCOC(=O)CSC
inactive: [12] 99 % of control | [13] 101 % of control | [14] 94 % of control | [15] 106 % of control | [16] 100 % of control | [17] 98 % of control

O=C1C(=O)c2ccccc2C=C1[N+](=O)[O-]
inactive: dose: 5.0 mg/kg/injection, schedule: Q01DX009 (ip), vehicle: saline 92 % of control | dose: 5.0 mg/kg/injection, schedule: Q04DX003 (ip), vehicle: saline 108 % of control | dose: 10.0 mg/kg/injection, schedule: Q01DX009 (ip), vehicle: saline 101 % of control | dose: 10.0 mg/kg/injection, schedule: Q04DX003 (ip), vehicle: saline 96 % of control | dose: 20.0 mg/kg/injection, schedule: Q01DX009 (ip), vehicle: saline 99 % of control | dose: 20.0 mg/kg/injection, schedule: Q04DX003 (ip), vehicle: saline 93 % of control

CC(=O)OC1/C(=C/c2ccco2)CCC2CCCCC21C (stereo not given)
inactive: [9] 96 % of control | dose: 100.0 mg/kg/injection, schedule: Q01DX001 (ip), vehicle: saline 91 % of control | [18] 103 % of control | dose: 200.0 mg/kg/injection, schedule: Q01DX001 (ip), vehicle: saline 88 % of control | [19] 108 % of control | dose: 400.0 mg/kg/injection, schedule: Q01DX001 (ip), vehicle: saline 93 % of control

[O-][n+]1ccc(Cl)cc1
inactive: [18] 100 % of control | [19] 96 % of control | dose: 400.0 mg/kg/injection, schedule: Q01DX009 (ip), vehicle: saline 94 % of control

Clc1ccccc1/C=C/c1ccccn1
inactive: dose: 6.25 mg/kg/injection, schedule: Q04DX002 (ip), vehicle: DMSO 102 % of control | dose: 12.5 mg/kg/injection, schedule: Q04DX002 (ip), vehicle: DMSO 98 % of control | dose: 25.0 mg/kg/injection, schedule: Q04DX002 (ip), vehicle: DMSO 109 % of control | dose: 100.0 mg/kg/injection, schedule: Q04DX002 (ip), vehicle: DMSO 94 % of control

c1ccc(-c2csc3[n+]2CCN3)cc1
inactive: dose: 50.0 mg/kg/injection, schedule: Q01DX001 (ip), vehicle: saline 99 % of control
